According to patent publication US20120016011A1, “RNA Interference Mediated Inhibition of Connective Tissue Growth Factor (CTGF) Gene Expression Using Short Interfering Nucleic Acid (siNA)” (Merck Sharp & Dohme Corp., priority 2009, published 2012):
[invAb] = inverted abasic unit; m = 2'-O-methyl; r = 2'-OH (RNA); f = 2'-fluoro

Tests used:
α-SMA mRNA = assay: Inhibition of α-SMA mRNA induction by TGF-β1 in HLF cells; assay type: cell-based, human; details: for Inhibition of upregulation of α-SMA mRNA by TGF-β1: 10 nM siNA, FIG. 12
Description: A549 cells (ECACC, 86012804) were maintained in Dulbecco's Modified Eagle Medium (DMEM) containing 10% Fetal Calf Serum (FCS), 2 mM L-glutamine, 100 U/ml penicillin and 100 μg/ml streptomycin (all from GIBCO). Sub-confluent cultures (2.7×10^3 cells/cm^2) were seeded in collagen-coated multi-well plates (Becton Dickenson) and grown for three days. Cells were quiesced using the same medium containing 0.5% FCS, for 24 hours prior to stimulation with cytokines. Cells were incubated with 0-10 ng/ml TGF-(31 for the periods indicated. Normal Human Lung Fibroblasts (HLFs) were obtained from Lonza and maintained in Fibroblast Growth Medium supplemented with growth factors (Lonza #CC-3132); final serum concentration of medium was 2%. HLFs were treated with cytokines in serum-free medium. Normal Human Bronchial Epithelial cells (NHBEs, also obtained from Lonza) were maintained and transfected in Lonza BEBM with SingleQuots (Lonza #CC-3170). All growth factors from the kit were added, except retinoic acid. All cultures were maintained at 37° C. in a humidified incubator with 5% CO2 atmosphere.
Cells were harvested at time points appropriate for the experiment. Supernatants were removed and stored at −70° C. until analysis. Cells were washed using Dulbecco's Phosphate Buffered Saline (DPBS, GIBCO), prior to lysis. RNA lysates for Taqman analysis were produced using Promega RNA lysis buffer. All lysates were stored at −70° C. until use.
Cells were seeded on 96-well tissue culture plates (A549s and NHBEs, collagen-coated plates at densities of 5×10^3 and 1.2×10^4 respectively; HLFs on flat-bottom tissue culture plates, at 1×10^4 cells per well) in 100 μl of growth medium. […] Knockdown is calculated compared to CTGF expression of cells transfected with the universal control siNA.
RNA was isolated using a Biomek 2000 robot and Promega SV 96 Total RNA Isolation kits. cDNA was synthesised using a High Capacity cDNA Reverse Transcription Kit (Applied Biosciences) on a 96-well thermal cycler. […] Plates were analysed using an ABI Taqman RT-PCR machine, and SDS 2.2 Automation Controller software. […]

[1] = system: collagen secretion (PICP) by HLF cells; assay: Pro-collagen Type I C-terminal Pro-peptide (PICP) MSD assay, collagen secretion by HLF cells; assay type: cell-based, human; details: TGF-β1 treated, vs universal control siNA, FIG. 13
Description: A Pro-collagen Type I C-terminal Pro-peptide (PICP) MSD assay was done on HLF cells transfected with siNAs and treated with TGF-β1. Supernatant from the HLF cells transfected with siNAs and treated with TGF-β1, was removed 72 hours after transfection and 48 hours after treatment. Plates and reagents (except antibodies) were purchased from Meso Scale Discovery. High bind, small spot 96 well MSD plates were spotted with 20 ng/well of the capture antibody (pro-collagen type I C-terminal pro-peptide, human PICP, Caltag Medsystmes) using a TTP LabTech Mosquito. Plates were left to dry for 48 hours before use. The MSD assay was performed as outlined: Plates were blocked with 30 mg/ml Blocker A, sealed and then shook on a plate shaker for 1 hour at RT. Plates were washed 3× with MSD Tris wash buffer. 25 μl of the supernatants were added for 1 hour on a plate shaker, plates were washed as before. The detection antibody (Anti-pro-collagen type I C-terminal pro-peptide, human PICP, Caltag Medsystmes Ltd) was diluted to 800 ng/ml in 10 mg/ml blocker A solution. This antibody had previously been Sulfo-Tagged using Sulfo-Tag NHS Ester (MSD) according to manufacturer's instructions. 25 μl of the diluted sulfo-tagged detection antibody was added, and left as before on a plate shaker for 1 hour. […] 150 μl of 1× Read buffer T was added per well, and the plates read on the MSD sector reader. […]

Substance | Inhibition of upregulation of α-SMA mRNA by TGF-β1 (α-SMA mRNA) | α-SMA expression levels relative to untreated cells (α-SMA mRNA; 5 and 10 ng/ml TGF-β1) | Collagen secretion (PICP secretion) induced by TGF-β1 [1]
48042-DC: siNA duplex; sense SEQ ID NO: 49 B GAcAuuAAcucAuuAGAcu TTB; antisense SEQ ID NO: 50 AGUcuAAuGAGuuAAuGucUU (sense GACAUUAACUCAUUAGACUTT; antisense AGUCUAAUGAGUUAAUGUCUU; sense: DNA at AGT, 2'-fluoro at CU, [invAb] at 5' end, 3' end, backbone not given here; antisense: sugars from the 5' end rrrffmmfmmmffmmfmffmm, backbone not given here) | significantly inhibited the upregulation of α-SMA | comparable to untreated cells | returned the levels of PICP secretion to near basal levels
48048-DC: siNA duplex; sense SEQ ID NO: 61 B GAuAGcAucuuAuAcGAGu TTB; antisense SEQ ID NO: 62 ACUcGuAuAAGAuGcuAucUU (sense GAUAGCAUCUUAUACGAGUTT; antisense ACUCGUAUAAGAUGCUAUCUU; sense: DNA at AGT, 2'-fluoro at CU, [invAb] at 5' end, 3' end, backbone not given here; antisense: sugars from the 5' end rrrfmfmfmmmmfmffmffmm, backbone not given here) | consistent but not significant knockdown of α-SMA |  | returned the levels of PICP secretion to near basal levels
